Measurements published in PMC6934184, “Selective DNA-PKcs inhibition extends the therapeutic index of localized radiotherapy and chemotherapy” (The Journal of Clinical Investigation, 2019).

Target: T1, ABL1 T315I (Homo sapiens, UniProt P00519, T315I)
T1 construct: purchased Thermo Fisher Scientific (Life Technologies) SelectScreen
Assay: SelectScreen Z'LYTE
Type: biochemical
How it was run: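 Percent values come from Thermo SelectScreen profiling of NU5455, combining activity and binding assays. CSF1R was run in Z'LYTE format at Km app ATP, and CAMK1 in Adapta format with ATP listed at 10.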

**Q.** For `CN(C(=O)CN1CCOCC1)c1ccc2sc3c(-c4cccc5c(=O)cc(N6CC7CCC(C6)O7)oc45)cccc3c2c1` [NU5455], which inhibition at 1 µM is on record?
**A.** Its inhibition at 1 µM is -3%.
